Data reported in patent US20080233127A1, “IMIDAZOLOPYRIMIDINE ANALOGS AND THEIR USE AS PI3 KINASE AND MTOR INHIBITORS” (Wyeth, priority 2007, published 2008).
pIC50: −log10 of the molar value.

How the values were obtained:
PI3 Kinase = assay: PI3K fluorescence polarization assay; type: biochemical; conditions: 25 μM ATP, diC8-PI(4,5)P2 substrate, 1 hour at 25° C.; read-out: PI3 Kinase Median IC50
Description: Nunc 384 well black polypropylene fluorescent plates are used for PI3K assays. Reactions are quenched by the addition of EDTA to a final concentration of 10 mM. Final reaction volumes are 10 μl. […] Reactions are allowed to proceed for one hour at 25° C. After 1 hour, GST-tagged GRP1 (general receptor for phosphoinositides) PH domain fusion protein is added to a final concentration of 100 nM, and BODIPY-TMRI(1,3,4,5)P4 (Echelon) is also added to a final concentration of 5 nM. Final sample volumes are 25 μl with a final DMSO concentration of 0.8%. Assay Plates are read on Perkin-Elmer Envision plate readers with appropriate filters for Tamra [BODIPY-TMRI(1,3,4,5)P4].

human TOR = target: T1, human TOR (Homo sapiens, UniProt P42345); assay: mTOR enzyme assay (DELFIA format, purified FLAG-TOR, His6-S6K substrate); type: biochemical; conditions: 100 μM ATP, 1.25 μM His6-S6K, 2 hours at room temperature; read-out: TOR Kinase Median IC50
T1 construct: FLAG

Nc1ncc(-c2nc(N3CCOCC3)c3ncn(C4CCN(Cc5ccccc5)CC4)c3n2)cn1 [Compound 31, 5-[9-(1-benzylpiperidin-4-yl)-6-morpholin-4-yl-9H-purin-2-yl]pyrimidin-2-amine]
melting point: 238 to 240 °C | pIC50 (PI3 Kinase): 7.37 | pIC50 (human TOR): 6.66

Nc1ccc(-c2nc(N3CCOCC3)c3ncn(C4CCN(Cc5ccccc5)CC4)c3n2)cn1 [Compound 32, 5-[9-(1-benzylpiperidin-4-yl)-6-morpholin-4-yl-9H-purin-2-yl]pyridin-2-amine]
melting point: 198 to 200 °C | pIC50 (PI3 Kinase): 6.80 | pIC50 (human TOR): 6.92

OCc1cccc(-c2nc(N3CCOCC3)c3ncn(C4CCN(Cc5ccccc5F)CC4)c3n2)c1 [Compound 45, (3-{9-[1-(2-fluorobenzyl)piperidin-4-yl]-6-morpholin-4-yl-9H-purin-2-yl}phenyl)methanol]
pIC50 (PI3 Kinase): 7.38 | pIC50 (human TOR): 6.80

OCc1cccc(-c2nc(N3CCOCC3)c3ncn(C4CCN(Cc5ccc(F)cc5Cl)CC4)c3n2)c1 [Compound 69, (3-{9-[1-(2-chloro-4-fluorobenzyl)piperidin-4-yl]-6-morpholin-4-yl-9H-purin-2-yl}phenyl)methanol]
pIC50 (PI3 Kinase): 7.11 | pIC50 (human TOR): 5.81

Oc1cncc(-c2nc(N3CCOCC3)c3nc[nH]c3n2)c1 [Compound 43, 5-(6-morpholin-4-yl-9H-purin-2-yl)pyridin-3-ol]
pIC50 (PI3 Kinase): 7.96 | pIC50 (human TOR): 6.21

Oc1ccc(-c2nc(N3CCOCC3)c3nc[nH]c3n2)cc1 [Compound 4, 4-(6-morpholin-4-yl-9H-purin-2-yl)phenol]
pIC50 (PI3 Kinase): 5.57 | pIC50 (human TOR): 6.35
